In US8729089B2 (Gilead Sciences, Inc., priority 2006, dated 2014) one finds EC50 and CC50 data, which are given here for 24 compounds.

Data set [1] relates to HCV replicon in human hepatoma Huh-7 cell line. The data set can be described thus: Anti-HCV replicon assay (EC50, luciferase). As to conditions: Hepatitis C virus, Huh-7, 72 h. The data set is classed as cell-based. A digest of the protocol: (§1)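 Cytotoxicity (CC50) measured by CellTiter-Glo and antiviral activity (EC50) by luciferase signal from lysed cells, both by luminescence. Replicon-bearing Huh-7 cells, 6000 per well, incubated 3 days at 37 °C with threefold-diluted compound (0.5% DMSO for DMSO-dissolved compounds).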

Data set [2] can be described thus: CC50 assay (CellTiter-Glo) in Huh-7 HCV replicon cells. The data set is classed as cell-based, human. The following applies: human, 3 days incubation, CellTiter-Glo readout. In a few lines: as §1
(In ATP-based viability assays light output follows the ATP content of the culture.)

Broadly, the EC50 is the concentration needed to bring the measured effect to its halfway point. Broadly, the CC50 is the concentration giving 50% cytotoxicity. Consider `NS(=O)(=O)c1ccc(CNc2nc(NCC(F)(F)F)c3nc(-c4ccc(F)c(S(=O)(=O)N[C@@H]5CCNC5)c4)ccc3n2)cc1` [Example 213, 2-Fluoro-N-pyrrolidin-3-yl-5-[2-(4-sulfamoyl-benzylamino)-4-(2,2,2-trifluoro-ethylamino)-pyrido[3,2-d]pyrimidin-6-yl]-benzenesulfonamide], for which the 50% effective concentration (EC50) in data set [1] was less than 0.1 µM. The compound further showed a half-maximal cytotoxic concentration (CC50) at 3 days in data set [2] of less than 5 µM.

The compound `NS(=O)(=O)c1ccc(CNc2nc(NCC(F)(F)F)c3nc(-c4ccc(F)c(S(=O)(=O)NC5CCNCC5)c4)ccc3n2)cc1` [Example 214, 2-Fluoro-N-piperidin-4-yl-5-[2-(4-sulfamoyl-benzylamino)-4-(2,2,2-trifluoro-ethylamino)-pyrido[3,2-d]pyrimidin-6-yl]-benzenesulfonamide] returned an EC50 in data set [1] of less than 0.1 µM. In data set [2], the cytotoxic concentration (CC50) at 3 days was in the range of 5 to 25 µM.

As to `CC(C)(C)OC(=O)N1CCC(NS(=O)(=O)c2cc(-c3ccc4nc(NCc5ccc(S(N)(=O)=O)cc5)nc(NCC(F)(F)F)c4n3)ccc2F)CC1` [Example 215, 4-{2-Fluoro-5-[2-(4-sulfamoyl-benzylamino)-4-(2,2,2-trifluoro-ethylamino)-pyrido[3,2-d]pyrimidin-6-yl]-benzenesulfonylamino}-piperidine-1-carboxylic acid tert-butyl ester], the EC50 in data set [1] was less than 0.1 µM. In data set [2], this compound registered a CC50 at 3 days of 5 to 25 µM.

Consider `C[C@H](N)C(=O)Nc1ccc(-c2ccc3nc(NCc4ccc(S(N)(=O)=O)cc4)nc(NCC(F)(F)F)c3n2)cc1F` [Example 216, 2-Amino-N-{2-fluoro-4-[2-(4-sulfamoyl-benzylamino)-4-(2,2,2-trifluoro-ethylamino)-pyrido[3,2-d]pyrimidin-6-yl]-phenyl}-propionamide], for which the EC50 in data set [1] was less than 0.1 µM. The same compound had a CC50 at 3 days in data set [2] of less than 5 µM.

`NS(=O)(=O)c1ccc(CNc2nc(NCC(F)(F)F)c3nc(-c4ccc(F)c(S(=O)(=O)N5CCNCC5)c4)ccc3n2)cc1` [Example 217, 4-{[6-[4-Fluoro-3-(piperazine-1-sulfonyl)-phenyl]-4-(2,2,2-trifluoro-ethylamino)-pyrido[3,2-d]pyrimidin-2-ylamino]-methyl}-benzenesulfonamide] yielded an EC50 in data set [1] of less than 0.1 µM. The 50% cytotoxic concentration (CC50) at 3 days in data set [2] was less than 5 µM.

With `CC(C)(C)OC(=O)N1CCN(S(=O)(=O)c2cc(-c3ccc4nc(NCc5ccc(S(N)(=O)=O)cc5)nc(NCC(F)(F)F)c4n3)ccc2F)CC1` [Example 218, 4-{2-Fluoro-5-[2-(4-sulfamoyl-benzylamino)-4-(2,2,2-trifluoro-ethylamino)-pyrido[3,2-d]pyrimidin-6-yl]-benzenesulfonyl}-piperazine-1-carboxylic acid tert-butyl ester], the concentration giving a half-maximal response (EC50) in data set [1] was less than 0.1 µM. In data set [2], this compound registered a cytotoxic concentration (CC50) at 3 days of 5 to 25 µM.

With `NS(=O)(=O)c1ccc(CNc2nc(NCC(F)(F)F)c3nc(-c4ccc(NC(=O)[C@H]5CCNC5)c(F)c4)ccc3n2)cc1` [Example 219, Pyrrolidine-3-carboxylic acid {2-fluoro-4-[2-(4-sulfamoyl-benzylamino)-4-(2,2,2-trifluoro-ethylamino)-pyrido[3,2-d]pyrimidin-6-yl]-phenyl}-amide], the EC50 in data set [1] is less than 0.1 µM. Also, the half-maximal cytotoxic concentration (CC50) at 3 days in data set [2] was less than 5 µM.

In data set [1], `C[C@@H](O)C(=O)Nc1ccc(-c2ccc3nc(NCc4ccc(S(N)(=O)=O)cc4)nc(NCC(F)(F)F)c3n2)cc1` [Example 220, 2-Hydroxy-N-{4-[2-(4-sulfamoyl-benzylamino)-4-(2,2,2-trifluoro-ethylamino)-pyrido[3,2-d]pyrimidin-6-yl]-phenyl}-propionamide] displayed an EC50 of less than 0.1 µM. This compound also showed a CC50 at 3 days in data set [2] of 5 to 25 µM.

`C[C@H](N)C(=O)Nc1ccc(-c2ccc3nc(NCc4ccc(S(N)(=O)=O)cc4)nc(NCC(F)(F)F)c3n2)cc1` [Example 221, 2-Amino-N-{4-[2-(4-sulfamoyl-benzylamino)-4-(2,2,2-trifluoro-ethylamino)-pyrido[3,2-d]pyrimidin-6-yl]-phenyl}-propionamide] displayed an EC50 in data set [1] of less than 0.1 µM. Further, the CC50 at 3 days in data set [2] was greater than 25 µM.

For the compound `NS(=O)(=O)c1ccc(CNc2nc(NCC(F)(F)F)c3nc(-c4ccc(NC(=O)[C@H]5CCNC5)cc4)ccc3n2)cc1` [Example 222, Pyrrolidine-3-carboxylic acid {4-[2-(4-sulfamoyl-benzylamino)-4-(2,2,2-trifluoro-ethylamino)-pyrido[3,2-d]pyrimidin-6-yl]-phenyl}-amide], the EC50 in data set [1] was less than 0.1 µM. This compound also returned a cytotoxic concentration (CC50) at 3 days in data set [2] of 5 to 25 µM.

In data set [1], `NS(=O)(=O)c1ccc(CNc2nc(NCC(F)(F)F)c3nc(-c4ccc(NC(=O)OCCN5CCCC5)cc4)ccc3n2)cc1` [Example 223, {4-[2-(4-Sulfamoyl-benzylamino)-4-(2,2,2-trifluoro-ethylamino)-pyrido[3,2-d]pyrimidin-6-yl]-phenyl}-carbamic acid 2-pyrrolidin-1-yl-ethyl ester] came in with an EC50 of less than 0.1 µM. The same compound yielded a cytotoxic concentration (CC50) at 3 days in data set [2] of 5 to 25 µM.

In data set [1], `NS(=O)(=O)c1cc(-c2ccc3nc(NCc4ccc(F)cc4)nc(NCC(F)(F)F)c3n2)ccc1F` [Example 224, 2-Fluoro-5-[2-(4-fluoro-benzylamino)-4-(2,2,2-trifluoro-ethylamino)-pyrido[3,2-d]pyrimidin-6-yl]-benzenesulfonamide] returned a half-maximal effective concentration (EC50) of less than 0.1 µM. Moreover, in data set [2], the CC50 at 3 days was greater than 25 µM.

The compound `NS(=O)(=O)c1ccc(CNc2nc(NCC(F)(F)F)c3nc(-c4ccc(F)c(S(N)(=O)=O)c4)ccc3n2)cc1` [Example 225, 2-Fluoro-5-[2-(4-sulfamoyl-benzylamino)-4-(2,2,2-trifluoro-ethylamino)-pyrido[3,2-d]pyrimidin-6-yl]-benzenesulfonamide] registered a half-maximal effective concentration (EC50) in data set [1] of less than 0.1 µM. In data set [2], this compound gave a cytotoxic concentration (CC50) at 3 days greater than 25 µM.

`CCOc1nc(NCc2ccc(S(N)(=O)=O)cc2)nc2ccc(-c3ccc(NC(=O)[C@@H](N)[C@H](C)O)cc3)nc12` [Example 226, 2-Amino-N-{4-[4-ethoxy-2-(4-sulfamoyl-benzylamino)-pyrido[3,2-d]pyrimidin-6-yl]-phenyl}-3-hydroxy-butyramide] came in with an EC50 in data set [1] of less than 0.1 µM. This compound returned a CC50 at 3 days in data set [2] greater than 25 µM.

For `CCOc1nc(NCc2ccc(S(N)(=O)=O)cc2)nc2ccc(-c3ccc(N4CC(O)CC4=O)cc3)nc12` (stereo not drawn) [Example 227, 4-({4-Ethoxy-6-[4-(4-hydroxy-2-oxo-pyrrolidin-1-yl)-phenyl]-pyrido[3,2-d]pyrimidin-2-ylamino}-methyl)-benzenesulfonamide], the concentration giving a half-maximal response (EC50) in data set [1] was less than 0.1 µM. Besides, the CC50 at 3 days in data set [2] is greater than 25 µM.

In turn, `NS(=O)(=O)c1ccc(CNc2nc(Nc3ccc(-n4cncn4)cc3)c3nc(-c4ccc(F)cc4)ccc3n2)cc1` [Example 228, 4-{[6-(4-Fluoro-phenyl)-4-(4-[1,2,4]triazol-1-yl-phenylamino)-pyrido[3,2-d]pyrimidin-2-ylamino]-methyl}-benzenesulfonamide] came in with an EC50 in data set [1] of less than 0.1 µM. In data set [2], this compound came in with a cytotoxic concentration (CC50) at 3 days of less than 5 µM.

As to `NS(=O)(=O)c1ccc(CNc2nc(Nc3cccc(F)c3)c3nc(-c4ccc(F)cc4)ccc3n2)cc1` [Example 229, 4-{[6-(4-Fluoro-phenyl)-4-(3-fluoro-phenylamino)-pyrido[3,2-d]pyrimidin-2-ylamino]-methyl}-benzenesulfonamide], in data set [1], the EC50 is less than 0.1 µM. Besides, in data set [2], the CC50 at 3 days was less than 5 µM.

In data set [1], `CS(=O)(=O)Nc1cc(-c2ccc3nc(NCc4ccc(S(N)(=O)=O)cc4)nc(NCC(F)(F)F)c3n2)ccc1F` [Example 230, 4-{[6-(4-Fluoro-3-methanesulfonylamino-phenyl)-4-(2,2,2-trifluoro-ethylamino)-pyrido[3,2-d]pyrimidin-2-ylamino]-methyl}-benzenesulfonamide] registered a concentration for a half-maximal effect (EC50) of less than 0.1 µM. The cytotoxic concentration (CC50) at 3 days in data set [2] lay in the range of 5 to 25 µM.

For `NS(=O)(=O)c1ccc(CNc2nc(NCC(F)(F)F)c3nc(-c4ccc(F)c(NS(=O)(=O)C5CC5)c4)ccc3n2)cc1` [Example 231, 4-{[6-(3-Cyclopropanesulfonylamino-4-fluoro-phenyl)-4-(2,2,2-trifluoro-ethylamino)-pyrido[3,2-d]pyrimidin-2-ylamino]-methyl}-benzenesulfonamide], in data set [1], the EC50 was less than 0.1 µM. For the same compound, the cytotoxic concentration (CC50) at 3 days in data set [2] is greater than 25 µM.

For `NS(=O)(=O)c1ccc(CNc2nc(NCC(F)(F)F)c3nc(-c4cccc(S(N)(=O)=O)c4)ccc3n2)cc1` [Example 232, 3-[2-(4-sulfamoyl-benzylamino)-4-(2,2,2-trifluoro-ethylamino)-pyrido[3,2-d]pyrimidin-6-yl]-benzenesulfonamide], in data set [1], the 50% effective concentration (EC50) is less than 0.1 µM. The CC50 at 3 days in data set [2] is greater than 25 µM.

With `NS(=O)(=O)c1ccc(CNc2nc(NCC(F)(F)F)c3nc(-c4ccc(F)c(Cl)c4)ccc3n2)cc1` [Example 233, 4-{[6-(3-Chloro-4-fluoro-phenyl)-4-(2,2,2-trifluoro-ethylamino)-pyrido[3,2-d]pyrimidin-2-ylamino]-methyl}-benzenesulfonamide], in data set [1], the 50% effective concentration (EC50) is less than 0.1 µM. The same compound showed a CC50 at 3 days in data set [2] of 5 to 25 µM.

For the compound `NS(=O)(=O)c1ccc(CNc2nc(OC3CC3)c3nc(-c4ccc(F)cc4)ccc3n2)cc1` [Example 234, 4-{[4-Cyclopropoxy-6-(4-fluoro-phenyl)-pyrido[3,2-d]pyrimidin-2-ylamino]-methyl}-benzenesulfonamide], the half-maximal effective concentration (EC50) in data set [1] is less than 0.1 µM. Besides, the CC50 at 3 days in data set [2] was 5 to 25 µM.

For `NS(=O)(=O)c1ccc(CNc2nc(Oc3cccc(F)c3)c3nc(-c4ccc(F)cc4)ccc3n2)cc1` [Example 235, 4-{[4-(3-Fluoro-phenoxy)-6-(4-fluoro-phenyl)-pyrido[3,2-d]pyrimidin-2-ylamino]-methyl}-benzenesulfonamide], the concentration giving a half-maximal response (EC50) in data set [1] was less than 0.1 µM. The compound also gave a half-maximal cytotoxic concentration (CC50) at 3 days in data set [2] of 5 to 25 µM.

For `COCCOc1nc(NCc2ccc(S(N)(=O)=O)cc2)nc2ccc(-c3ccc(F)c(Cl)c3)nc12` [Example 236, 4-{[6-(3-Chloro-4-fluoro-phenyl)-4-(2-methoxy-ethoxy)-pyrido[3,2-d]pyrimidin-2-ylamino]-methyl}-benzenesulfonamide], the EC50 in data set [1] was less than 0.1 µM. This compound had a CC50 at 3 days in data set [2] of 5 to 25 µM.
